Tests used:
[1] = biological target: T1, S1P1 mutant L3.36E (Homo sapiens, UniProt P21453, L128E); assay: [35S]GTPγS binding, S1P1 L3.36E; type: biochemical; set-up: expressed in transfected cells; host or cells: RH7777 (transient, pcDNA3.1); conditions: S1P-induced, S1P1 L3.36E in RH7777 cells
Protocol: (§1) RH7777 and HEK-293 cells (ATCC, Manassas, Va.) were maintained in Dulbecco's modified minimal essential medium (DMEM) containing 10% fetal bovine serum (Hyclone, Logan, Utah). Cells (2×10^6) were transfected with 2 μg of plasmid DNA with Effectene (Qiagen, Valencia, Calif.) according to the manufacturer's instructions, for 24 h. Before ligand binding and receptor activation assays, the cells were washed twice with serum-free DMEM and serum-starved for at least 6 h.
(§2) S1P1 Receptor Activation Assays Receptor functional assays were performed in transiently transfected RH7777 cells by measuring S1P-activated [^35S]GTPγS binding as previously described (28).

[2] = biological target: T2, S1P1 mutant V6.37T (Homo sapiens, UniProt P21453, V258T); assay: [35S]GTPγS binding, S1P1 V6.37T; type: biochemical; conditions: S1P-induced, S1P1 V6.37T in RH7777 cells
T2 construct: expressed in transfected cells; host or cells: RH7777 (transient, pcDNA3.1)
T2 sequence (P21453 whole entry V258T): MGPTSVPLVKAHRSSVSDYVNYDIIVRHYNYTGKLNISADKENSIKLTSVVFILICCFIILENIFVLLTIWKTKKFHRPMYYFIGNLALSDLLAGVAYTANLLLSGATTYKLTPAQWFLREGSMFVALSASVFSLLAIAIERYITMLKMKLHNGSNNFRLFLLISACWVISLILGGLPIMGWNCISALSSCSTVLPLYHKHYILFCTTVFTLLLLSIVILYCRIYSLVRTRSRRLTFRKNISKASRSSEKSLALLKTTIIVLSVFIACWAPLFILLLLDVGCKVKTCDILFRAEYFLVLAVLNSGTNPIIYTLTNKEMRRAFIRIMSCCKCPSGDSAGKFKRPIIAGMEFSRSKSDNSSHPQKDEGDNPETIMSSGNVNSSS
Protocol: as §1, §2

[3] = biological target: T3, S1P1 mutant C5.44D (Homo sapiens, UniProt P21453, C206D); assay: [35S]GTPγS binding, S1P1 C5.44D; type: biochemical; conditions: S1P-induced, S1P1 C5.44D in RH7777 cells
T3 construct: expressed in transfected cells; host or cells: RH7777 (transient, pcDNA3.1)
T3 sequence (P21453 whole entry C206D): as the sequence (P21453 whole entry V258T) above, with C206D, T258V counted along it
Protocol: as §1, §2

[4] = biological target: T4, S1P1 mutant L5.51G (Homo sapiens, UniProt P21453, L213G); assay: [35S]GTPγS binding, S1P1 L5.51G; type: biochemical; conditions: S1P-induced, S1P1 L5.51G in RH7777 cells
T4 construct: expressed in transfected cells; host or cells: RH7777 (transient, pcDNA3.1)
T4 sequence (P21453 whole entry L213G): as the sequence (P21453 whole entry V258T) above, with L213G, T258V counted along it
Protocol: as §1, §2

[5] = biological target: T5, S1P1 mutant I5.41F (Homo sapiens, UniProt P21453, I203F); assay: [35S]GTPγS binding, S1P1 I5.41F; type: biochemical; conditions: S1P-induced, S1P1 I5.41F in RH7777 cells
T5 construct: expressed in transfected cells; host or cells: RH7777 (transient, pcDNA3.1)
T5 sequence (P21453 whole entry I203F): as the sequence (P21453 whole entry V258T) above, with I203F, T258V counted along it
Protocol: as §1, §2

[6] = biological target: T6, S1P1 mutant W6.48E (Homo sapiens, UniProt P21453, W269E); assay: [35S]GTPγS binding, S1P1 W6.48E; type: biochemical; conditions: S1P-induced, S1P1 W6.48E in RH7777 cells
T6 construct: expressed in transfected cells; host or cells: RH7777
T6 sequence (P21453 whole entry W269E): as the sequence (P21453 whole entry V258T) above, with T258V, W269E counted along it
Protocol: as §1, §2

[7] = biological target: T7, S1P1 mutant W6.48A (Homo sapiens, UniProt P21453, W269A); assay: [32P]S1P competition binding, HEK-293 cells, W6.48A; conditions: S1P1 W6.48A
T7 construct: expressed in transfected cells
T7 sequence (P21453 whole entry W269A): as the sequence (P21453 whole entry V258T) above, with T258V, W269A counted along it
Protocol: For the competition assays, HEK-293 cells were used. Briefly, 4×10^5 cells were plated in 24-well dishes and allowed to adhere overnight. The cells were then transfected with 0.4 μg of the cDNA using Lipofectamine 2000 (Invitrogen) and the transfection proceeded for 48 h. After washing the cells twice with ice-cold binding buffer (20 mM Tris-HCl, pH 7.4 and 150 mM NaCl), 0.1 nM [^32P]S1P and competing concentrations of cold S1P (1 nM-10 μM), resuspended in binding buffer+4% BSA, were applied to the cells and incubated on ice for 30 min. After washing the cells twice with ice-cold binding buffer+0.4% BSA, the cells were lysed with 0.5% SDS and equilibrated in scintillation fluid. The samples were measured in triplicate.

[8] = biological target: T8, S1P1 mutant F5.43Y (Homo sapiens, UniProt P21453, F205Y); assay: [35S]GTPγS binding, S1P1 F5.43Y; type: biochemical; conditions: S1P-induced, S1P1 F5.43Y in RH7777 cells
T8 construct: expressed in transfected cells; host or cells: RH7777 (transient, pcDNA3.1)
T8 sequence (P21453 whole entry F205Y): as the sequence (P21453 whole entry V258T) above, with F205Y, T258V counted along it
Protocol: as §1, §2

[9] = biological target: T9, S1P1 mutant F6.44G (Homo sapiens, UniProt P21453, F265G); assay: [35S]GTPγS binding, S1P1 F6.44G; type: biochemical; conditions: S1P-induced, S1P1 F6.44G in RH7777 cells
T9 construct: expressed in transfected cells; host or cells: RH7777
T9 sequence (P21453 whole entry F265G): as the sequence (P21453 whole entry V258T) above, with T258V, F265G counted along it
Protocol: as §1, §2

[10] = biological target: T10, S1P1 mutant V3.40L (Homo sapiens, UniProt P21453, V132L); assay: [35S]GTPγS binding, S1P1 V3.40L; type: biochemical; conditions: S1P-induced, S1P1 V3.40L in RH7777 cells
T10 construct: expressed in transfected cells; host or cells: RH7777 (transient, pcDNA3.1)
T10 sequence (P21453 whole entry V132L): as the sequence (P21453 whole entry V258T) above, with V132L, T258V counted along it
Protocol: as §1, §2

[11] = biological target: T11, S1P1 double mutant L3.43, 3.44G (Homo sapiens, UniProt P21453, L135G/L136G); assay: [35S]GTPγS binding, S1P1 L3.43, 3.44G; type: biochemical; conditions: S1P-induced, S1P1 L3.43, 3.44G in RH7777 cells
T11 construct: expressed in transfected cells; host or cells: RH7777
T11 sequence (P21453 whole entry L135G/L136G): as the sequence (P21453 whole entry V258T) above, with L135G, L136G, T258V counted along it
Protocol: as §1, §2

[12] = biological target: T12, S1P1 mutant V6.40T (Homo sapiens, UniProt P21453, V261T); assay: [35S]GTPγS binding, S1P1 V6.40T; type: biochemical; conditions: S1P-induced, S1P1 V6.40T in RH7777 cells
T12 construct: expressed in transfected cells; host or cells: RH7777
T12 sequence (P21453 whole entry V261T): as the sequence (P21453 whole entry V258T) above, with T258V, V261T counted along it
Protocol: as §1, §2

[13] = Ligand-induced [35S]GTPγS binding, empty vector; type: biochemical; conditions: S1P-induced, empty vector in RH7777 cells
Protocol: as §1, §2

[14] = biological target: T13, S1P1 mutant V3.40T (Homo sapiens, UniProt P21453, V132T); assay: [35S]GTPγS binding, S1P1 V3.40T; type: biochemical; conditions: S1P-induced, S1P1 V3.40T in RH7777 cells
T13 construct: expressed in transfected cells; host or cells: RH7777 (transient, pcDNA3.1)
T13 sequence (P21453 whole entry V132T): as the sequence (P21453 whole entry V258T) above, with V132T, T258V counted along it
Protocol: as §1, §2

[15] = biological target: T1, S1P1 mutant L3.36E; assay: [32P]S1P radioligand binding, RH7777 cells, L3.36E; set-up: expressed in transfected cells; host or cells: RH7777 (transient, pcDNA3.1); conditions: radioligand 50 nM, S1P1 L3.36E
Protocol: as §1
The S1P binding assays were done essentially as previously described (28). Transfected RH7777 cells (5×10^5) were incubated at 4° C. in 20 mM Tris-HCl (pH 7.5) binding buffer containing 100 mM NaCl, 15 mM NaF, protease inhibitor cocktail (Sigma-Aldrich), and 0.2 mg/ml essentially fatty-acid free BSA with 1 nM [^32P]S1P in 50 nM S1P for 40 min. Cells were centrifuged and washed twice in binding buffer. The final pellet was resuspended in 2:1 CHCl3/MeOH and the suspension was equilibrated in scintillation fluid overnight. Cell-bound radioactivity was measured by liquid scintillation counting using a Beckman LS5000 TA counter (Beckman Coulter, Irvine, Calif.). Specific binding was defined as the difference between total binding and non-specific binding (in the presence of 2-5 μM cold S1P). Standard errors were computed on the basis of triplicate samples from two simultaneous transfections.

T1 sequence (P21453 whole entry L128E): as the sequence (P21453 whole entry V258T) above, with L128E, T258V counted along it

EC50 [1]: 0.62 ± 0.46 nM
Emax ([1]; read-out: % WT Emax + s.d.): 39 ± 2.8%
EC50 [2]: 13 nM
Emax ([2]; read-out: % WT Emax + s.d.): 181%
EC50 [3]: 79 ± 17 nM
Emax ([3]; read-out: % WT Emax + s.d.): 85%
EC50 [4]: 2.6 ± 2.1 nM
Emax ([4]; read-out: % WT Emax + s.d.): 46%
EC50 [5]: 18.9 nM
Emax ([5]; read-out: % WT Emax + s.d.): 27%
% WT Emax + s.d. [6]: ∞
EC50 + s.d. [6]: ∞
Bmax [7]: 2080 fmol
Kd ([7]; competition with cold S1P, read-out: KD + s.d.): 38.5 nM
EC50 [8]: 23 nM
Emax ([8]; read-out: % WT Emax + s.d.): 90%
% WT Emax + s.d. [9]: ∞
EC50 + s.d. [9]: ∞
EC50 [10]: 7 ± 4.5 nM
Emax ([10]; read-out: % WT Emax + s.d.): 55%
% WT Emax + s.d. [11]: ∞
EC50 + s.d. [11]: ∞
EC50 [12]: 57.3 nM
Emax ([12]; read-out: % WT Emax + s.d.): 61%
% WT Emax + s.d. [13]: ∞
EC50 + s.d. [13]: ∞
EC50 [14]: 13.8 ± 1.8 nM
Emax ([14]; read-out: % WT Emax + s.d.): 137%
[32P]S1P binding relative to WT [15]: > 50 % of the WT
SMILES: CCCCCCCCCCCCC/C=C/[C@@H](O)[C@@H](N)COP(=O)(O)O [S1P, Sphingosine 1-phosphate]

Reference: US20090029949A1, “GPCR Ligands Identified by Computational Modeling” (priority 2006, published 2009)
